Read-outs that look alike come from different tables or passages of the source.
Tests used:
[1] = system: DENV-3 strain H87 prototype; assay: Antiviral activity against DENV-3 in Vero-B cells (viral RNA load by RT-qPCR); assay type: cell-based, Dengue virus
DENV-2 NGC = assay: Antiviral activity against DENV-2 NGC in Vero-B cells (viral RNA load by RT-qPCR); assay type: cell-based, Dengue virus; conditions: DENV-2 in Vero-B cells, inhibition of viral RNA replication by 50% (Table 3)
[2] = system: DENV-1 Djibouti strain D1/H/IMTSSA/98/606; assay: Antiviral activity against DENV-1 in Vero-B cells (viral RNA load by RT-qPCR); assay type: cell-based, Dengue virus
[3] = system: DENV-4 strain Dak HD 34 460; assay: Antiviral activity against DENV-4 in Vero-B cells (viral RNA load by RT-qPCR); assay type: cell-based, Dengue virus
[4] = system: uninfected quiescent Vero-B cells; assay: Cytotoxic assay in uninfected quiescent Vero-B cells (MTS/PMS); conditions: 4 days (Table 3)

Structure (SMILES) | CC50 [4] [µM] | EC50 (DENV-2 NGC; Dengue virus, DENV2, Vero B) [µM] | other results
COc1cncc(NC(C(=O)c2c[nH]c3ccccc23)c2ccccc2)c1 (single isomer, unassigned) [CPD-300] | 50 |  | EC50 [1]: 21.1 µM; EC50 (DENV-2 NGC): 1.29 µM; EC50 [2]: 5.29 µM; EC50 [3]: 4.13 µM
COc1cncc(NC(C(=O)c2c[nH]c3ccc(F)cc23)c2ccc(OC)nc2)c1 (single isomer, unassigned) [CPD-323] | 58 |  | EC50 [1]: 4.99 µM; EC50 (DENV-2 NGC): 0.35 µM; EC50 [2]: 3.62 µM
COc1cccc(NC(C(=O)c2c[nH]c3ccccc23)c2cc3ccccn3n2)c1 (single isomer, unassigned) [CPD-324] | 30 |  | EC50 [1]: 0.19 µM; EC50 (DENV-2 NGC): 0.01 µM; EC50 [2]: 0.27 µM; EC50 ([3]; Dengue virus, DENV4, Vero B): 5.32 µM
COc1cccc(NC(C(=O)c2c[nH]c3ccccc23)c2cc3ccccn3n2)c1 (single isomer, unassigned) [CPD-325] | 68 |  | EC50 [1]: 1.84 µM; EC50 (DENV-2 NGC): 0.09 µM; EC50 [2]: 0.87 µM; EC50 [3]: 7.16 µM
COc1cc(NC(C(=O)c2c[nH]c3ccccc23)c2ccccc2)cc(OC)c1 (single isomer, unassigned) [CPD-326] | 13 |  | EC50 [1]: 0.09 µM; EC50 (DENV-2 NGC): 0.001 µM; EC50 [2]: 0.05 µM; EC50 ([3]; Dengue virus, DENV4, Vero B): 1.89 µM
COc1cc(NC(C(=O)c2c[nH]c3ccccc23)c2ccccc2)cc(OC)c1 (single isomer, unassigned) [CPD-327] | 11 |  | EC50 [1]: 4.61 µM; EC50 (DENV-2 NGC): 0.35 µM; EC50 [2]: 1.42 µM; EC50 [3]: 2.25 µM
O=C(c1c[nH]c2ccccc12)C(Nc1cccc(OC(F)(F)F)c1)c1ccccc1 (stereo not shown) [CPD-005] | 5 | 0.93 | 
O=C(c1c[nH]c2ccccc12)C(Nc1cccc(F)c1)c1ccccc1 (stereo not shown) [CPD-008] | 12 | 2.42 | 
O=C(c1c[nH]c2ccccc12)C(Nc1cc(F)cc(F)c1)c1ccccc1 (stereo not shown) [CPD-011] | 23 | 1.66 | 
COc1cc(F)cc(NC(C(=O)c2c[nH]c3ccccc23)c2ccccc2)c1 (stereo not shown) [CPD-015] | 22 | 0.02 | 
O=C(c1c[nH]c2ccccc12)C(Nc1cccnc1)c1ccccc1 (stereo not shown) [CPD-016] | 54 | 5.01 | 
COc1cccc(NC(C(=O)c2c[nH]c3ccccc23)c2ccncc2)c1 (stereo not shown) [CPD-020] | 16 | 0.14 | EC50 ([2]; Dengue virus, DENV1, Vero B): 15.1 µM
COc1cccc(NC(C(=O)c2c[nH]c3ccccc23)c2ccc(S(C)(=O)=O)cc2)c1 (stereo not shown) [CPD-021] | > 115 | 1.62 | 
COc1cccc(NC(C(=O)c2c[nH]c3ccccc23)c2ccco2)c1 (stereo not shown) [CPD-023] | 16 | 0.3 | 
COc1cccc(NC(C(=O)c2c[nH]c3ccccc23)c2ccsc2)c1 (stereo not shown) [CPD-027] | 15 | 0.13 | EC50 ([1]; Dengue virus, DENV3, Vero B): 9.9 µM; EC50 ([2]; Dengue virus, DENV1, Vero B): 2.1 µM; EC50 ([3]; Dengue virus, DENV4, Vero B): 3.7 µM
N#Cc1cccc(NC(C(=O)c2c[nH]c3ccccc23)c2ccccc2)c1 (stereo not shown) [CPD-035] | 14 | 2.11 | 
COc1cccc(NC(C(=O)c2c[nH]c3ccccc23)c2ccc3nccnc3c2)c1 (stereo not shown) [CPD-037] | 19 | 1.2 | 
COc1ccc(OC)c(NC(C(=O)c2c[nH]c3ccccc23)c2ccccc2)c1 (stereo not shown) [CPD-039] | 15 | 2.48 | 
COc1cccc(NC(C(=O)c2c[nH]c3ccccc23)c2ccccc2)c1OC (stereo not shown) [CPD-040] | > 129 | 4.24 | 
CS(=O)(=O)c1cccc(NC(C(=O)c2c[nH]c3ccccc23)c2ccccc2)c1 (stereo not shown) [CPD-044] | 65 | 6.48 | 
O=C(c1c[nH]c2ccccc12)C(Nc1ccc2[nH]c(=O)oc2c1)c1ccccc1 (stereo not shown) [CPD-057] | 15 | 6.05 | 
COc1ccnc(NC(C(=O)c2c[nH]c3ccccc23)c2ccccc2)c1 (stereo not shown) [CPD-066] | 95 | 6.32 | 
COc1cncc(NC(C(=O)c2c[nH]c3ccccc23)c2ccccc2)c1 (stereo not shown) [CPD-067] | 20 | 0.04 | EC50 ([1]; Dengue virus, DENV3, Vero B): 1.2 µM; EC50 ([2]; Dengue virus, DENV1, Vero B): < 0.5 µM
COc1nc(NC(C(=O)c2c[nH]c3ccccc23)c2ccccc2)ns1 (stereo not shown) [CPD-070] | 90 | 3.27 | 
COc1cccc(NC(C(=O)c2c[nH]c3cc(Cl)ccc23)c2ccccc2)c1 (stereo not shown) [CPD-118] | 13 | 0.01 | EC50 ([1]; Dengue virus, DENV3, Vero B): 3.68 µM; EC50 ([2]; Dengue virus, DENV1, Vero B): 0.44 µM
COc1cccc(NC(C(=O)c2c[nH]c3ccccc23)c2cccc(C)c2)c1 (stereo not shown) [CPD-138] | 20 | 0.27 | EC50 ([1]; Dengue virus, DENV3, Vero B): 6.52 µM; EC50 ([2]; Dengue virus, DENV1, Vero B): 3.21 µM
